Measured values published in paper PMC12720098, “Prolintane analogs as hybrid monoamine transporter ligands: Structural determinants and species differences” (The Journal of Biological Chemistry, 2025).
Where two headings read alike, the source gives them in different places.

Legend:
[1] = target: rSERT (Rattus norvegicus, UniProt P31652); experiment: Uptake inhibition assay ([3H]5-HT) in rat brain synaptosomes; format: biochemical; design: As a means to evaluate transporter activity of prolintane analogs in native tissue preparation; from tissue; host or cells: rat brain synaptosomes (whole brain minus caudate and cerebellum)
Procedure: (§1) Rats were killed by CO2 narcosis and decapitated, then synaptosomes were prepared from brains using standard procedures. In brief, synaptosomes were prepared from caudate tissue for rat DAT (rDAT) assays, or from whole brain minus caudate and cerebellum for rat NET (rNET) and rat SERT (rSERT) assays. Brain tissue was homogenized in ice-cold 10% sucrose followed by centrifugation at 1000g for 10 min. The resulting supernatant containing crude synaptosomes was kept on ice until use in uptake or release procedures. Uptake inhibition and release assays were carried out as previously described ([62], [63]).
(§2) For uptake inhibition assays, 5 nM [^3H]dopamine, 10 nM [^3H]norepinephrine, or 5 nM [^3H]5-HT was used as the radiolabeled transmitter for rDAT, rNET, or rSERT, respectively. To optimize uptake for a single transporter, unlabeled blockers were included that prevented uptake of [^3H]transmitter by competing transporters: 50 nM GBR 12935 was added to NET and SERT assays to block DAT, 100 nM nomifensine was added to SERT assays to block NET. Uptake assays were initiated by adding 100 μl of tissue to 900 μl Krebs-phosphate buffer (126 mM NaCl, 2.4 mM KCl, 0.83 mM CaCl2, 0.8 mM MgCl2, 0.5 mM KH2PO4, 0.5 mM Na2SO4, 11.1 mM glucose, 0.05 mM pargyline, 1 mg/ml bovine serum albumin, and 1 mg/ml ascorbic acid, pH 7.4) containing test drug and [^3H]transmitter. Uptake assays were terminated by rapid vacuum filtration, and retained radioactivity was quantified with liquid scintillation counting.
(§3) Effects of test drugs on release and uptake inhibition were analyzed by nonlinear regression using GraphPad Prism 9 (GraphPad Scientific, San Diego, CA, USA). Concentration–response values for the uptake inhibition and release were fit to the equation, Y(x)=Ymin+Ymax−Ymin/1+10^((LogP50−LogX)·n) , where x is the concentration of the compound tested, Y(x) is the response measured, Ymax is the maximal response, P50 is either IC50 (the concentration that yields half-maximal uptake inhibition response) or EC50 (the concentration that yields half-maximal release response), and n is the Hill slope parameter.

[2] = target: T1, rDAT (Rattus norvegicus, UniProt P23977); experiment: Uptake inhibition assay ([3H]dopamine) in rat brain synaptosomes; format: biochemical; conditions: for DAT/SERT ratio: rat isoform (r), 1/DAT IC50 / 1/SERT IC50
T1 construct: As a means to evaluate transporter activity of prolintane analogs in native tissue preparation; from tissue; host or cells: rat caudate synaptosomes
Procedure: as §1, §2, §3

[3] = target: T2, hSERT (Homo sapiens, UniProt P31645); format: cell-based; conditions: for Mean diff, hSERT efflux ± Mon (Šídák's multiple comparisons test): drug alone vs drug + monensin (Mon); for hSERT efflux ± Mon, mean diff: superfusion
T2 construct: expressed in transfected cells
Procedure: A day prior to the experiment, HEK293 cells stably expressing hSERT or rat SERT (rSERT) were seeded at a density of 100,000 cells per channel into 6 channel flow ibidi slides (Gräfelfing, Germany). On the day of the experiments, cells were preloaded with 0.1 μM [^3H]5-HT at 37 °C, 5% CO2 for 20 min. Subsequently, the slides were transferred to the superfusion apparatus ([59]). Cells were then washed with KHB for 15 min under a constant flow of 0.5 ml/min. Fractions were collected every 2 min in 8 ml vials containing 2 ml scintillation cocktail. Collection began with three baseline fractions using KHB, followed by four additional basal release fractions with KHB, either with or without 10 μM monensin. […] To assess residual radioactivity within the cells, they were lysed with 1% sodium dodecyl sulfate (SDS), and three final fractions were obtained. The measured tritiated substrate in each fraction was expressed as a percentage of the initial tritiated substrate present at the start of that fraction.
(§4) Half-maximal inhibitory concentrations (IC50) were obtained from fitting a sigmoidal dose–response ( Y=Bottom+Top−Bottom/1+10^((LogIC50−X)·HillSlope) ) in GraphPad Prism 10.3.1 (GraphPad Software Inc.). Uptake inhibition data were evaluated by one-way ANOVA followed by Tukey's multiple comparisons test. Release data were analyzed using a two-way ANOVA (batch release) or a mixed-effects model with Geisser-Greenhouse correction (time-dependent traces) employing Šidák correction for comparing differences between compounds with or without the addition of monensin.

[4] = target: T3, hNET (Homo sapiens, UniProt P23975); experiment: Uptake inhibition assay ([3H]MPP+) in transfected HEK293 cells; format: cell-based
T3 construct: expressed in transfected cells
Procedure: HEK293 cells stably expressing human monoamine transporters hSERT, hDAT or hNET were seeded into poly-D-lysine (PDL) coated 96-well plates with a density of approximately 36,000 cells per well 1 day prior to experiments. A day after seeding, the cell medium was replaced with 200 μl Krebs-HEPES-buffer (KHB; 120 mM NaCl, 3 mM KCl, 2 mM CaCl2·2H2O, 2 mM MgCl2·6H2O, 20 mM D-glucose, pH = 7.3). The test drugs were initially dissolved in Milli-Q H2O or dimethyl sulfoxide (DMSO) at a concentration of 10 to 100 mM. Then, cells were treated with the respective concentration of the test drug diluted in KHB for 5 min as a pre-incubation step. Subsequently, in the uptake step, the solution was replaced with 50 μl/well diluted drug solution and tritiated substrate (hDAT: 0.1 μM [^3H]DA; hNET: 0.02 μM [^3H]MPP^+; hSERT: 0.1 μM [^3H]5-HT) for 1 min (hDAT, hSERT) or 3 min (hNET). After incubation, cells were immediately washed with 200 μl KHB to stop uptake. Uptake was indirectly measured by quantifying beta emission with liquid scintillation counting (Wallac 1450 MicroBeta TriLux Liquid Scintillation Counter & Lumi; GMI). Therefore, 200 μl Ultima Gold XR scintillation cocktail (PerkinElmer, MA, USA) was added to each well.
as §4

T1 sequence (P23977 whole entry, canonical isoform): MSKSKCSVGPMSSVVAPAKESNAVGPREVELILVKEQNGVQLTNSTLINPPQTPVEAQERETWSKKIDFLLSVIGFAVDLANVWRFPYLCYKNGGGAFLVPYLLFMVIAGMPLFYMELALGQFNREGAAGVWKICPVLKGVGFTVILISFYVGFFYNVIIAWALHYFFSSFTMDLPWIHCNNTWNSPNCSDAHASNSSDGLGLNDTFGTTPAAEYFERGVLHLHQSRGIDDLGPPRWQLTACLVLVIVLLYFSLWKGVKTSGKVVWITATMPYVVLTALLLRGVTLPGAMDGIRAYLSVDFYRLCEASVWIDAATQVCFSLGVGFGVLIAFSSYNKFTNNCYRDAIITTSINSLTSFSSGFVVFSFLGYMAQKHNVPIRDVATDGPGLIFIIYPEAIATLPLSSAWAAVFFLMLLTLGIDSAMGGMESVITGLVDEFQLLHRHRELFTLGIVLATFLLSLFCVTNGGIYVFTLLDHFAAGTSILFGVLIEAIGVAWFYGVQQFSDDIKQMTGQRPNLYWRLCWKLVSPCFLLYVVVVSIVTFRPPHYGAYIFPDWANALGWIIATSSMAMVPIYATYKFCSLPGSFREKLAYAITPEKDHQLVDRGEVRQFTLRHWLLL
T2 sequence (P31645 whole entry, the tested form may be a part): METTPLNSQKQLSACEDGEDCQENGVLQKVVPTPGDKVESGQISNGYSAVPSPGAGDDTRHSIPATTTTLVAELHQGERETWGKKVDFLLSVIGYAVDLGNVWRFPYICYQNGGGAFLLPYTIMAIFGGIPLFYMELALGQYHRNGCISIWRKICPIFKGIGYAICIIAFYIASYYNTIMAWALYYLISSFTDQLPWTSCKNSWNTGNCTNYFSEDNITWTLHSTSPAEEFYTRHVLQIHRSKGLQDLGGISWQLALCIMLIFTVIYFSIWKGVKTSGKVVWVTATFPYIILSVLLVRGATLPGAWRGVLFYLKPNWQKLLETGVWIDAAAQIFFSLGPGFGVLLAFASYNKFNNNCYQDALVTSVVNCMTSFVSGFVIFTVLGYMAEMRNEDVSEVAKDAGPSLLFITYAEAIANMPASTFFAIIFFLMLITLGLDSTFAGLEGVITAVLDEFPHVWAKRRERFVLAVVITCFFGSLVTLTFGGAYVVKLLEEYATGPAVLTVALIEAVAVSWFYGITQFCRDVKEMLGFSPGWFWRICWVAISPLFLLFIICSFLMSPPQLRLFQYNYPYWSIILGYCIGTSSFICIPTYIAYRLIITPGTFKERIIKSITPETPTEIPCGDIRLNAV
Chain of rSERT (P31652 whole entry): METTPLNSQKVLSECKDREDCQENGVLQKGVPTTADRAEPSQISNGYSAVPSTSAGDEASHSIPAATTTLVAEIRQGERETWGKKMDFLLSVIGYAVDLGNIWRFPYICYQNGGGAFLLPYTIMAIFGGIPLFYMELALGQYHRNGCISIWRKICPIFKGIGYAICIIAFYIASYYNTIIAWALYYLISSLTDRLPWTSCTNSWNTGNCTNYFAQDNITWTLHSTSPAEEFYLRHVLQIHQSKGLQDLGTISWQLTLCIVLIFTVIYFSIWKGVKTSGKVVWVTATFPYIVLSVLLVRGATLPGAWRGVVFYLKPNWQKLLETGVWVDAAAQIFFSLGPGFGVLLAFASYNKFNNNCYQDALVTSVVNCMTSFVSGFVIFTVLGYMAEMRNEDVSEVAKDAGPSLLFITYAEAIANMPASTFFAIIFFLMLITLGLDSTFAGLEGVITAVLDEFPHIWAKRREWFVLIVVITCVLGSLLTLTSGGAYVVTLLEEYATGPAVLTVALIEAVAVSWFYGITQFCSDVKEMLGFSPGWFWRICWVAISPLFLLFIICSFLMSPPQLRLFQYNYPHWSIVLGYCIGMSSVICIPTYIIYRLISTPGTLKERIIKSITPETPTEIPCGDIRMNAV
T3 sequence (P23975 whole entry): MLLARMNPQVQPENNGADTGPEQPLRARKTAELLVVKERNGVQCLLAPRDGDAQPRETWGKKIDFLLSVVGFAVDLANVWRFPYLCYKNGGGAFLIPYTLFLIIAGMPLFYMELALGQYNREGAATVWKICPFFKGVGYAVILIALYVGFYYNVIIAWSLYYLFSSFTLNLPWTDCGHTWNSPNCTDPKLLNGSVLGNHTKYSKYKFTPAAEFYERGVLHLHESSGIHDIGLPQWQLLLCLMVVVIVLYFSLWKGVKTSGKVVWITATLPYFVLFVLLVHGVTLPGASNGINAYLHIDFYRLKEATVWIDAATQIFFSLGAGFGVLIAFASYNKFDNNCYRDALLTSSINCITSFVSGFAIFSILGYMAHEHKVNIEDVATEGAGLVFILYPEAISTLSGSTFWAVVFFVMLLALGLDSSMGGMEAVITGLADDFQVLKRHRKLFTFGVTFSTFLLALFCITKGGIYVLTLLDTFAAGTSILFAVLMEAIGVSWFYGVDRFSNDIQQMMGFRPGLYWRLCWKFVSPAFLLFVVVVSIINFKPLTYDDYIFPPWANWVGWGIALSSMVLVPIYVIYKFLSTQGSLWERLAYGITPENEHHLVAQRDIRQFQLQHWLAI

Work on `CCCC(Cc1ccccc1F)N1CCCC1` (centres unmarked) [2-Fluoroprolintane, 1-[1-(2-fluorophenyl)pentan-2-yl]pyrrolidine] yielded an IC50 [1] of 2.23 ± 0.152 µM, an IC50 [2] of 0.117 ± 0.01 µM and a DAT/SERT ratio [2] of 19. For the same molecule, the “Mean diff, hSERT efflux ± Mon (Šídák's multiple comparisons test)” value (from here on “Mean diff, hSERT efflux ± Mon”) ([3]; Row 1 (time fraction)) was -0.05533, the “Mean diff, hSERT efflux ± Mon” value ([3]; Row 2 (time fraction)) was -0.01811 and the “Mean diff, hSERT efflux ± Mon” value ([3]; Row 3 (time fraction)) was -0.031. The “Mean diff, hSERT efflux ± Mon” value ([3]; Row 4 (time fraction)) was -0.05989, the “Mean diff, hSERT efflux ± Mon” value ([3]; Row 5 (time fraction)) was -0.128 and the “Mean diff, hSERT efflux ± Mon” value ([3]; Row 6 (time fraction)) was -0.2267. The “Mean diff, hSERT efflux ± Mon” value ([3]; Row 7 (time fraction)) was -0.3166, the “Mean diff, hSERT efflux ± Mon” value ([3]; Row 8 (time fraction)) was -4.727 and the “Mean diff, hSERT efflux ± Mon” value ([3]; Row 9 (time fraction)) was -7.079. The “Mean diff, hSERT efflux ± Mon” value ([3]; Row 10 (time fraction)) was -7.103, the “Mean diff, hSERT efflux ± Mon” value ([3]; Row 11 (time fraction)) was -6.897 and the “Mean diff, hSERT efflux ± Mon” value ([3]; Row 12 (time fraction)) was -6.561. For the same molecule, the IC50 [4] was 0.102 ± 0.022 µM.

In the case of `CCCC(Cc1ccccc1C)N1CCCC1` (centres unmarked) [2-Methylprolintane, 1-[1-(2-methylphenyl)pentan-2-yl]pyrrolidine], the IC50 ([1]; read-out: [3H]5-HT uptake SERT IC50, rat isoform (r), rat brain synaptosomes, mean ± SD) is reported as 0.323 ± 0.28 µM, the IC50 [2] is reported as 0.324 ± 0.025 µM and the DAT/SERT ratio [2] is reported as 1. For the same molecule, the “hSERT efflux ± Mon, mean diff” value ([3]; Row 1 (2 min fraction 1, baseline KHB)) was 0.1289, the “hSERT efflux ± Mon, mean diff” value ([3]; Row 2 (2 min fraction 2, baseline KHB)) was 0.1185 and the “hSERT efflux ± Mon, mean diff” value ([3]; Row 3 (2 min fraction 3, baseline KHB)) was 0.1694. The “hSERT efflux ± Mon, mean diff” value ([3]; Row 4 (fraction 4, KHB with or without 10 μM monensin)) was 0.04832, the “hSERT efflux ± Mon, mean diff” value ([3]; Row 5 (fraction 5, KHB with or without 10 μM monensin)) was -0.1068 and the “hSERT efflux ± Mon, mean diff” value ([3]; Row 6 (fraction 6, KHB with or without 10 μM monensin)) was -0.2079. For the same molecule, the “hSERT efflux ± Mon, mean diff” value ([3]; Row 7 (fraction 7, KHB with or without 10 μM monensin)) was -0.2202, the “hSERT efflux ± Mon, mean diff” value ([3]; Row 8 (fraction 8, compound at IC50 concentration)) was -5.467 and the “hSERT efflux ± Mon, mean diff” value ([3]; Row 9 (fraction 9, compound at IC50 concentration)) was -7.92. For the same molecule, the “hSERT efflux ± Mon, mean diff” value ([3]; Row 10 (fraction 10, compound at IC50 concentration)) was -7.744, the “hSERT efflux ± Mon, mean diff” value ([3]; Row 11 (fraction 11, compound at IC50 concentration)) was -7.355 and the “hSERT efflux ± Mon, mean diff” value ([3]; Row 12 (fraction 12, compound at IC50 concentration)) was -7.467. The IC50 [4] was 0.119 ± 0.049 µM.
